HELM strings list units from the 5' end as sugar, base in round brackets, then linkage (d deoxyribose, r ribose, m 2'-O-methyl, p phosphodiester). Strings are as the collection lists them; they lack the last nucleoside at the 3' end of the tested compound. [moe] = 2'-O-(2-methoxyethyl) (MOE); [sp] = phosphorothioate linkage; [m5C] = 5-methylcytosine
These substances were tested against UBE3A-ATS (assay: mouse, dose not given). Details: ASO.

Substance	3 h FOB score [score 0-7]
RNA1{[moe]([m5C])[sp].[moe](T)p.[moe]([m5C])p.[moe](A)p.[moe](G)p.d(T)[sp].d(T)[sp].d(A)[sp].d(G)[sp].d(G)[sp].d(T)[sp].d(T)[sp].d(A)[sp].d(G)[sp].d(T)[sp].[moe](G)p.[moe]([m5C])p.[moe](A)[sp].[moe]([m5C])}$$$$ (last 3' nucleoside missing)	6
RNA1{[moe]([m5C])[sp].[moe](T)p.[moe]([m5C])p.[moe](A)p.d(G)[sp].d(T)[sp].d(T)[sp].d(A)[sp].d(G)[sp].d(G)[sp].d(T)[sp].d(T)[sp].d(A)[sp].d(G)[sp].[moe](T)p.[moe](G)p.[moe]([m5C])p.[moe](A)[sp].[moe]([m5C])}$$$$ (last 3' nucleoside missing)	4
RNA1{[moe]([m5C])[sp].[moe](T)p.[moe]([m5C])p.[moe]([m5C])p.[moe](A)p.d(G)[sp].d(T)[sp].d(T)[sp].d(T)[sp].d(T)[sp].d([m5C])[sp].d(G)[sp].d([m5C])[sp].d([m5C])[sp].d([m5C])[sp].[moe](G)p.[moe](T)p.[moe](T)[sp].[moe](A)}$$$$ (last 3' nucleoside missing)	3.3
RNA1{[moe]([m5C])[sp].[moe]([m5C])p.[moe](A)p.[moe](A)p.[moe](T)p.d(A)[sp].d(T)[sp].d(T)[sp].d(T)[sp].d(T)[sp].d(G)[sp].d(A)[sp].d([m5C])[sp].d(T)[sp].d(A)[sp].[moe](G)p.[moe](T)p.[moe](T)[sp].[moe]([m5C])}$$$$ (last 3' nucleoside missing)	4.2
RNA1{[moe]([m5C])[sp].[moe]([m5C])p.[moe](A)p.[moe](A)p.[moe]([m5C])p.d(T)[sp].d(T)[sp].d([m5C])[sp].d(A)[sp].d(T)[sp].d([m5C])[sp].d(A)[sp].d(A)[sp].d(T)[sp].d(A)[sp].[moe](T)p.[moe](T)p.[moe](T)[sp].[moe]([m5C])}$$$$ (last 3' nucleoside missing)	0
RNA1{[moe]([m5C])[sp].[moe]([m5C])p.[moe](A)p.[moe](G)p.[moe](G)p.d(T)[sp].d(G)[sp].d(T)[sp].d([m5C])[sp].d(T)[sp].d(T)[sp].d(A)[sp].d(T)[sp].d(A)[sp].d(T)[sp].[moe]([m5C])p.[moe](T)p.[moe](A)[sp].[moe](T)}$$$$ (last 3' nucleoside missing)	1
RNA1{[moe]([m5C])[sp].[moe]([m5C])p.[moe](A)p.[moe](G)p.[moe](T)p.d(T)[sp].d(T)[sp].d(T)[sp].d([m5C])[sp].d(G)[sp].d([m5C])[sp].d([m5C])[sp].d([m5C])[sp].d(G)[sp].d(T)[sp].[moe](T)p.[moe](A)p.[moe]([m5C])[sp].[moe]([m5C])}$$$$ (last 3' nucleoside missing)	4.5
RNA1{[moe]([m5C])[sp].[moe]([m5C])p.[moe](A)p.[moe](G)p.[moe]([m5C])p.d([m5C])[sp].d(A)[sp].d(G)[sp].d(G)[sp].d(T)[sp].d(G)[sp].d(T)[sp].d([m5C])[sp].d(T)[sp].d(T)[sp].[moe](A)p.[moe](T)p.[moe](A)[sp].[moe](T)}$$$$ (last 3' nucleoside missing)	3.8
RNA1{[moe]([m5C])[sp].[moe]([m5C])p.[moe](A)p.[moe](T)p.[moe](T)p.d(T)[sp].d(T)[sp].d(G)[sp].d(A)[sp].d([m5C])[sp].d([m5C])[sp].d(T)[sp].d(T)[sp].d([m5C])[sp].d(T)[sp].[moe](T)p.[moe](A)p.[moe](G)[sp].[moe]([m5C])}$$$$ (last 3' nucleoside missing)	1
RNA1{[moe]([m5C])[sp].[moe]([m5C])p.[moe](A)p.[moe](T)p.[moe](T)p.d([m5C])[sp].d(A)[sp].d(G)[sp].d([m5C])[sp].d(A)[sp].d([m5C])[sp].d(T)[sp].d(T)[sp].d(A)[sp].d(G)[sp].[moe](G)p.[moe](T)p.[moe](A)[sp].[moe](G)}$$$$ (last 3' nucleoside missing)	3.7
RNA1{[moe]([m5C])[sp].[moe]([m5C])p.[moe](A)p.[moe]([m5C])p.[moe](A)p.d([m5C])[sp].d(A)[sp].d(T)[sp].d(A)[sp].d(T)[sp].d(A)[sp].d(G)[sp].d(G)[sp].d([m5C])[sp].d(T)[sp].[moe](A)p.[moe](G)p.[moe]([m5C])[sp].[moe]([m5C])}$$$$ (last 3' nucleoside missing)	1
RNA1{[moe]([m5C])[sp].[moe]([m5C])p.[moe](T)p.[moe](A)p.[moe](T)p.d(A)[sp].d(G)[sp].d(G)[sp].d(T)[sp].d(G)[sp].d(G)[sp].d([m5C])[sp].d([m5C])[sp].d(T)[sp].d(T)[sp].[moe]([m5C])p.[moe](A)p.[moe](G)[sp].[moe](T)}$$$$ (last 3' nucleoside missing)	5
RNA1{[moe]([m5C])[sp].[moe]([m5C])p.[moe](T)p.[moe](T)p.[moe](T)p.d([m5C])[sp].d(T)[sp].d(A)[sp].d(T)[sp].d(T)[sp].d(T)[sp].d([m5C])[sp].d(A)[sp].d(G)[sp].d(A)[sp].[moe]([m5C])p.[moe]([m5C])p.[moe](G)[sp].[moe](A)}$$$$ (last 3' nucleoside missing)	2.3
RNA1{[moe]([m5C])[sp].[moe]([m5C])p.[moe](T)p.[moe]([m5C])p.[moe](T)p.d(T)[sp].d([m5C])[sp].d([m5C])[sp].d(A)[sp].d(A)[sp].d(A)[sp].d(A)[sp].d(T)[sp].d(T)[sp].d([m5C])[sp].[moe](T)p.[moe]([m5C])p.[moe](A)[sp].[moe]([m5C])}$$$$ (last 3' nucleoside missing)	0
RNA1{[moe]([m5C])[sp].[moe]([m5C])p.[moe]([m5C])p.[moe](A)p.[moe](T)p.d(T)[sp].d(A)[sp].d(G)[sp].d(A)[sp].d([m5C])[sp].d([m5C])[sp].d([m5C])[sp].d(A)[sp].d(T)[sp].d(G)[sp].[moe](G)p.[moe]([m5C])p.[moe](T)[sp].[moe]([m5C])}$$$$ (last 3' nucleoside missing)	7
RNA1{[moe]([m5C])[sp].[moe]([m5C])p.[moe]([m5C])p.[moe](A)p.[moe](T)p.d(T)[sp].d([m5C])[sp].d(A)[sp].d(G)[sp].d([m5C])[sp].d(A)[sp].d([m5C])[sp].d(T)[sp].d(T)[sp].d(A)[sp].[moe](G)p.[moe](G)p.[moe](T)[sp].[moe](A)}$$$$ (last 3' nucleoside missing)	4.8

Reference: the OligoGym collection
